This note sets out measurements from patent publication US8673913B2, “SHP-2 phosphatase inhibitor” (Case Western Reserve University, priority 2009, dated 2014).

In test [1] the test system is H661 (SHP-2 N58S) and H596 lung cancer cells. Nature of the test: cell proliferation assay, lung cancer cells (MTS). The class given is cell-based. To be noted: indicated concentrations 48 hours; 10 μM time course. The procedure: (§1) To test the effects of the active compounds on SHP-2-mediated cellular proliferation, Ba/F3, an IL-3 dependent hematopoietic cell line, mouse embryonic fibroblasts (MEFs), and H661 lung cancer cell line with SHP-2 activating mutation N58S were used for the assays. Cells were seeded into 96-well plates (2×10^4 cells/well) in the RPMI-1640 (for Ba/F3 cells) or DMEM (for MEFs and H661 cells) medium supplemented with 10% fetal bovine serum (FBS) and test compounds at various concentrations. For the Ba/F3 cell assay, recombinant mouse IL-3 (1 ng/mL) was included in the culture medium. Two days later, cell number was determined using the MTS cell proliferation kit (Promega Life Science, Madison, Wis.).
FIG. 14 illustrates A). […] H661 and H596 cells were cultured in DMEM medium supplemented with active compounds at the indicated concentrations. DMSO was included at negative controls. Cell numbers were determined 48 hours later using the MTS assay. Shown are the results of a representative compound #324. B). […] H661 and H596 cells were cultured in DMEM medium supplemented with active compounds (10 μM) for the indicated periods of time. DMSO was included at negative controls. Cell numbers were determined using the MTS assay. Shown are the results of a representative compound #324.

Test [2] has as its system JMML patient bone marrow cells. The test is described as follows: JMML bone marrow cells cultured with GM-CSF (MTS), FIG. 15. Type of test: cell-based. The following applies: DMEM with GM-CSF. The procedure: FIG. 15 illustrates inhibition of growth factor-independent colony formation of myeloid progenitors with SHP-2 activating mutation E76K by active compounds. JMML patient bone marrow cells were harvested from mutant mice with SHP-2 E76K mutation and were cultured in DMEM medium supplemented GM-CSF. DMSO was included at negative controls. Cell numbers were determined using the MTS assay. Shown are the results of a representative compound #324.

The target in test [3] is T1, GST-PTP-MEG2 PTP domain (PTPN9) (Homo sapiens, UniProt P43378).
T1 construct: GST-PTP-MEG2 PTP domain; purchased Biomol International, L.P. (Plymouth Meeting, Pa.)
T1 sequence (P43378 303-574 limits assumed): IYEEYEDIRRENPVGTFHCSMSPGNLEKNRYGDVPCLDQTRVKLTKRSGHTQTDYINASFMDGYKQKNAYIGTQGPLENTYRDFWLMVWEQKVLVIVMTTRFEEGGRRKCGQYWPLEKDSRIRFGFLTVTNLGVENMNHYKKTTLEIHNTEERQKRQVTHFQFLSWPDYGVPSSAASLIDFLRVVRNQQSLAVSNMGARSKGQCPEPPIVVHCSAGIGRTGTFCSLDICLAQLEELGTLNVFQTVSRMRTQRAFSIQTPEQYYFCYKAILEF
Nature of the test: in vitro phosphatase assay, PTP-MEG2. Type of test: biochemical. As for the experimental part: (§2) Candidate compounds were screened using the in vitro protein tyrosine phosphatase (PTP) assay kit (Sigma, St. Lois, Mo.). […] The assay determines free phosphate generated by dephosphorylation of the PTP substrate using the Malachite Green reagent. Briefly, 0.5 μg of GST-SHP-2 PTP was incubated in 40 μL assay buffer (25 mM Tris-HCl, PH7.4, 50 mM NaCl, 5 mM DTT, and 2.5 mM EDTA) with test compounds at various concentrations or DMSO at room temperature for 30 min. The PTP substrate was then added to a final concentration of 0.2 mM. The system was incubated at 30° C. for 30 min. Finally, 50 μl of Malachite Green solution was added and OD620 was measured after 5 min. In the phosphatase assays for SHP-1, CD45, TC-PTP, PTP-MEG2 (PTPN9), and LAR (PTPRF), procedures were similar, with the exception that GST-SHP-1, GST-CD45 cytoplasmic domain, GST-TC-PTP, GST-PTP-MEG2 PTP domain, and GST-LAR PTP domain purchased from Biomol International, L.P. (Plymouth Meeting, Pa.) were used instead as the enzymes.

The target in test [4] is T2, GST-CD45 cytoplasmic domain (Homo sapiens, UniProt P08575).
T2 construct: GST-CD45 cytoplasmic domain; purchased Biomol International, L.P. (Plymouth Meeting, Pa.)
T2 sequence (P08575 599-1306 limits assumed): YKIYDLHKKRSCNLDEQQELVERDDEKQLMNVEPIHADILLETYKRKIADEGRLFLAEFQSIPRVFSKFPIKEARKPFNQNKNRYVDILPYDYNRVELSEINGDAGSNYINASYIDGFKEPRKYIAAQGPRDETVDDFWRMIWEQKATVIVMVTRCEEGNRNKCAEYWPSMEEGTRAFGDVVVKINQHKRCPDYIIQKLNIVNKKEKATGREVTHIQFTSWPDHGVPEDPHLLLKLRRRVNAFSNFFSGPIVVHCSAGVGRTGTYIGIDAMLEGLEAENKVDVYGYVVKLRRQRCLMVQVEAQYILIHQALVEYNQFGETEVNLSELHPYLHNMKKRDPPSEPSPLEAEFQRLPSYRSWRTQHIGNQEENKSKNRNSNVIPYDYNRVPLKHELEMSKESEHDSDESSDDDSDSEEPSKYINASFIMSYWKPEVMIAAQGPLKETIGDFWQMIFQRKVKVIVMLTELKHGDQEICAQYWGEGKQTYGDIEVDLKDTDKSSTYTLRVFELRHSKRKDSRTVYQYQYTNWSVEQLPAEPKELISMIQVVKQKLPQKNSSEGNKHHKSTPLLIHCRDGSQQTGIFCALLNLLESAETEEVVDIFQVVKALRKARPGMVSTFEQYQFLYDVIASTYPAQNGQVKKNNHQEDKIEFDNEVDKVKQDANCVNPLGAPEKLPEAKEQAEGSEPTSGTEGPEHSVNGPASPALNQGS
Nature of the test: in vitro phosphatase assay, CD45. Type of test: biochemical. To be noted: read-out: IC50 PTPRC (CD45). As for the experimental part: as §2

The test system of test [5] is mouse embryonic fibroblasts, wildtype and SHP-2 E76K mutant. Nature of the test: cell proliferation assay, embryonic fibroblasts wildtype and SHP-2 E76K (MTS). Type of test: cell-based. To be noted: 48 hours. The procedure:
as §1
Mouse embryonic fibroblasts, wildtype and SHP-2 E76K mutant, were cultured in DMEM medium supplemented with active compounds at the indicated concentrations. DMSO was included at negative controls. Cell numbers were determined 48 hours later using the MTS assay. Shown are the results of a representative compound #324.

What is called IC50 is the concentration that gives 50% inhibition. Take `Cc1cc(C)c2[nH]c3nc(SCC(=O)Nc4cccc5ccccc45)nnc3c2c1` [#324]: the “sensitivity of H661 (N58S) cells versus H596 cells” value in test [1] is reported as “more sensitive”. In addition, in test [2], the “growth of JMML bone marrow cells with GM-CSF (FIG. 15)” value was “inhibition”. Further, the results for the concentration for half-maximal inhibition (IC50) in test [3] and in test [4] were 177 µM and 182 µM, respectively. The “sensitivity of E76K fibroblasts versus wild type fibroblasts” value in test [5] was “more sensitive”.
